For 29 compounds, TGI and GI50 results are on record in PubChem BioAssay (NCI).

Some test systems named below: DLD-1 colon; DMS 114 small cell lung; LXFL 529 NSCLC; M19-MEL melanoma; BT-549 breast; DU-145 prostate; HS 578T breast; MDA-MB-435; NCI/ADR-RES ovarian; T-47D breast.
Common to all, as to assay: growth of human tumour cells (NCI), 48 h

“And” between values parts separate entries of the source, which are not always exact repeats. Equal values may be shown once.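 All cell lines were grown in 96-well plates and treated with compound for 48 hours. Here, GI50 denotes the concentration required for 50% inhibition of growth. TGI is the concentration that stops growth completely.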

With `O=C1C2C3C=C4c5ccccc5N(c5ccccc5)C4(C2C(=O)N1c1ccccc1)C1C(=O)N(c2ccccc2)C(=O)C31` (stereo unspecified), the TGI with DLD-1 colon, with DMS 114 small cell lung, in the test with LXFL 529 NSCLC and in the test with M19-MEL melanoma was above 100 µM throughout.

Take `CN(C(=O)/C=C/c1ccccc1)C1C2CN3CCC(O2)C13` (stereo unspecified): the TGI with DLD-1 colon, with DMS 114 small cell lung and in the test with LXFL 529 NSCLC was above 100 µM throughout.

As for `O=c1cc(-c2cccs2)[nH]c2cc3c(cc12)OCO3`, the TGI in the test on DLD-1 colon was above 100 µM; in the test with DMS 114 small cell lung, above 24.5 µM; in the test on LXFL 529 NSCLC, above 100 µM; in the test with M19-MEL melanoma it was above 100 µM.

With `O=C1Nc2ccccc2C1(O)C/C(=N/O)c1ccc2ccccc2c1` (stereo unspecified), the TGI with DLD-1 colon, in the test on DMS 114 small cell lung, with LXFL 529 NSCLC and in the test on M19-MEL melanoma was above 100 µM throughout.

`C[N+](C)(C)CCC(=O)CC[N+](C)(C)C`: the TGI in the test on DLD-1 colon amounted to 39.2 µM; in the test with DMS 114 small cell lung it was 44.2 µM; in the test on LXFL 529 NSCLC, 30.4 µM; in the test with M19-MEL melanoma it was 54.5 µM.

Regarding `CC1=C(C(=O)Nc2ccccc2C)C(c2ccc(Cl)cc2)C(C(=O)Nc2ccccc2C)=C(C)N1`, the TGI with DLD-1 colon, with DMS 114 small cell lung, in the test with LXFL 529 NSCLC and with M19-MEL melanoma was above 100 µM throughout.

On to `Cn1c(=O)c(N=Nc2c(=O)n(C)c(=O)n3c2[nH]c2ccccc23)c2[nH]c3ccccc3n2c1=O`, for which the TGI in the test with DLD-1 colon, in the test on DMS 114 small cell lung, in the test with LXFL 529 NSCLC and with M19-MEL melanoma was above 100 µM throughout.

`COC(=O)/C(=N\NC(C)(C)C)C(C(=O)OC)C(=O)C(=O)Nc1cc(Cl)ccc1Cl` (stereo unspecified): the TGI in the test with DLD-1 colon, in the test with DMS 114 small cell lung, with LXFL 529 NSCLC and in the test on M19-MEL melanoma was above 100 µM each time.

For the compound `CCOC(=O)Cc1nc2ccc3c(c2[nH]c1=O)C(=O)c1ccccc1C3=O`, the TGI with DLD-1 colon, in the test with DMS 114 small cell lung, in the test on LXFL 529 NSCLC and with M19-MEL melanoma was above 100 µM in each case.

For `CC[O-].CC[O-].O=C([CH-]C(=O)c1ccccc1)CCCCCCCCC(=O)[CH-]C(=O)c1ccccc1.[Ti+4]`, the GI50 in the test on DLD-1 colon was above 100 µM; in the test with DMS 114 small cell lung, 80.6 µM; in the test with LXFL 529 NSCLC, above 100 µM; in the test with M19-MEL melanoma, above 100 µM. Besides, the TGI in the test on DLD-1 colon, in the test with DMS 114 small cell lung, in the test on LXFL 529 NSCLC and in the test with M19-MEL melanoma was above 100 µM throughout.

`C/C=C/C(C#N)O[Si](C)(C)C` (stereo unspecified): the TGI with DLD-1 colon, with DMS 114 small cell lung, in the test on LXFL 529 NSCLC and with M19-MEL melanoma was above 100 µM throughout.

Regarding `Cc1nc(C(N)=O)c(N)n1CCN1CCN(C(=O)CCCCCCCCCCNC2N=CNc3nc[nH]c32)CC1` (stereo unspecified), the TGI was above 100 µM with DMS 114 small cell lung, 71.6 µM in the test with LXFL 529 NSCLC and above 100 µM in the test with M19-MEL melanoma.

In the case of `COc1cc(Cl)cc(=O)c(O)c1OC`, the TGI in the test with DLD-1 colon was above 100 µM; in the test with DMS 114 small cell lung, 67.6 µM; in the test on LXFL 529 NSCLC, above 100 µM; with M19-MEL melanoma, above 100 µM.

In the case of `O=c1ncccn1[C@@H]1O[C@H](CO)[C@H](O)C1O` (stereo partly specified), the TGI in the test on DLD-1 colon, in the test on DMS 114 small cell lung, with LXFL 529 NSCLC and in the test on M19-MEL melanoma was above 100 µM each time.

With `CCc1cccc(C)c1NS(=O)(=O)c1ccccc1`, the TGI in the test on DLD-1 colon, in the test on DMS 114 small cell lung, in the test on LXFL 529 NSCLC and in the test with M19-MEL melanoma was above 100 µM in each case.

`c1cc[c]([Sn][c]2ccccc2)cc1`: the GI50 in the test with DLD-1 colon was 15.4 µM; in the test on DMS 114 small cell lung, 32.7 µM; with LXFL 529 NSCLC it was 16.8 µM. For the same compound, the TGI was 23.2 µM in the test with DLD-1 colon, above 100 µM in the test on DMS 114 small cell lung and 33.6 µM with LXFL 529 NSCLC.

In the case of `CCOC(=O)NC(=O)c1cn(CCN2CCN(C(=O)NCCCCCCNC(=O)N3CCN(CCn4cc(C(=O)NC(=O)OCC)c(=O)[nH]c4=O)CC3)CC2)c(=O)[nH]c1=O`, the TGI in the test with DMS 114 small cell lung, in the test with LXFL 529 NSCLC and in the test with M19-MEL melanoma was above 100 µM in each case.

For the compound `C=C(c1ccccc1)C1(O)CCCCC1N` (stereo unspecified), the TGI in the test with DLD-1 colon, in the test on DMS 114 small cell lung, in the test on LXFL 529 NSCLC and in the test on M19-MEL melanoma was above 100 µM each time.

With `O=C(N/N=C/c1ccccc1O)N/N=C/c1ccccc1O`, the TGI in the test with DLD-1 colon, with DMS 114 small cell lung, in the test with LXFL 529 NSCLC and with M19-MEL melanoma was above 100 µM in each case.

Regarding `COC(=O)c1sc(C(=O)OC)c2c1CS(=O)C2`, the TGI in the test with DLD-1 colon, in the test on DMS 114 small cell lung, with LXFL 529 NSCLC and with M19-MEL melanoma was above 100 µM throughout.

Take `CC1CC(C)CC(C)C(O)/C(C#N)=C/C=C/CC(C2CCCC2C(=O)O)OC(=O)CC(O)C(C)C1` (stereo unspecified): the GI50 in the test with BT-549 breast was 0.0501 µM; with DU-145 prostate it was 0.132 µM; in the test on HS 578T breast, 0.0395 µM; with MDA-MB-435, 0.0281 µM; in the test on NCI/ADR-RES ovarian it was 0.187 µM and < 0.0196 µM; in the test with T-47D breast, 0.00595 µM. In addition, the TGI is 0.636 µM and 0.321 µM with BT-549 breast; 0.0819 µM in the test on DLD-1 colon; below 0.016 µM in the test with DMS 114 small cell lung; 0.659 µM and 0.896 µM in the test with DU-145 prostate; 0.223 µM and 0.0673 µM in the test on HS 578T breast; 0.0397 µM in the test on LXFL 529 NSCLC. Moreover, the TGI in the test with M19-MEL melanoma is 0.0532 µM; in the test on MDA-MB-435, 0.0871 µM and 0.0731 µM; with NCI/ADR-RES ovarian it was 0.265 µM; with T-47D breast, 0.049 µM and < 0.0166 µM.

For `CCc1c(C#N)c(=O)[nH]c(=O)n1CCN1CCN(C(=O)NCCCCCCNC(=O)N2CCN(CCn3c(CC)c(C#N)c(=O)[nH]c3=O)CC2)CC1`, the TGI in the test with DLD-1 colon, in the test on DMS 114 small cell lung, with LXFL 529 NSCLC and in the test on M19-MEL melanoma was above 100 µM throughout.

Regarding `N#CC(N)=Nc1ccccc1`, the TGI in the test on DLD-1 colon was above 100 µM; with DMS 114 small cell lung, 31.1 µM; in the test with LXFL 529 NSCLC, above 100 µM; with M19-MEL melanoma, above 100 µM.

In the case of `Cn1c(=O)nc2n(-c3ccc(O)cc3)c3ccccc3nc-2c1=O`, the TGI in the test on DLD-1 colon is above 100 µM; in the test with DMS 114 small cell lung, above 100 µM; in the test on LXFL 529 NSCLC it was above 100 µM; with M19-MEL melanoma it was 81.1 µM.

For `O=C1CC(CC(=O)C2CCCCC2=O)C(=O)N1` (stereo unspecified), the TGI with DLD-1 colon, in the test on DMS 114 small cell lung, in the test on LXFL 529 NSCLC and in the test on M19-MEL melanoma was above 100 µM in each case.

In the case of `IC[P+]1(c2ccccc2)CCCC1`, the TGI in the test on DLD-1 colon is above 100 µM; in the test on DMS 114 small cell lung, 36.3 µM; with LXFL 529 NSCLC, above 100 µM; in the test on M19-MEL melanoma, 81 µM.

For `CN1N=CSC12C(=O)N(c1ccccc1)C(=O)N2c1ccccc1` (stereo unspecified), the TGI in the test on DLD-1 colon, in the test on DMS 114 small cell lung, with LXFL 529 NSCLC and in the test on M19-MEL melanoma was above 100 µM each time.

On to `Cc1c(OC(C)C(=O)O)ccc2c(-c3ccccc3)cc(=O)oc12` (stereo unspecified), for which the TGI in the test with DLD-1 colon, with DMS 114 small cell lung, in the test with LXFL 529 NSCLC and in the test on M19-MEL melanoma was above 100 µM each time.

As for `COC(=O)C1=CO[C@@H](OC2CC(CO)C(O)C(O)C2O)[C@@H]2[C@@H](C)[C@@H](OC(=O)/C=C/c3ccccc3)[C@@H](O)[C@H]12` (stereo partly specified) (tested in a mixture with another compound), the TGI in the test with DLD-1 colon, in the test with DMS 114 small cell lung, in the test with LXFL 529 NSCLC and with M19-MEL melanoma was above 100 µM throughout.
